Like-named read-outs stand apart in the source and are kept apart here.
Columns and labels:
[1] = test system: CD40L-induced proliferation of human CD19+ B cells; assay: Inhibition of CD40L-induced human CD19+ B-cell proliferation (BrdU); type: cell-based; conditions: for IC50: B-cell
Description: Because CD40 stimulation is an important signal for B cell proliferation, soluble CD40L can concentration-dependently induce the proliferation of human B cells.
Inhibition of cell proliferation was determined in freshly isolated human CD19^+ B cells using the colorimetric cell proliferation ELISA BrdU kit from Roche Applied Science (Indianapolis, Ind.). B cells were isolated from the PBMC as follows. Briefly, cells were washed three times with medium (RPMI 1640) and incubated for 20 min at 4° C. with 20 μL/10^7 cells of anti-CD19 Microbeads (Miltenyi Biotech, Bergisch Gladbach, Germany), according to the MiniMacs protocol (Miltenyi Biotech). Cells were then purified using magnetic columns. […] Cells were cultured in 96 wells plates (100 μL/well) at a cell density of 2×10^5 cells/mL in IMDM medium supplemented with 5% FBS, 100 U/mL penicillin, streptomycin 100 μg/mL, insulin-transferrin-selenium-G (all materials from Invitrogen, San Diego, Calif.) and 10 […] (R&D Systems). […] After 48 h, BrdU labeling solution was added as recommended, and cells were cultivated for another 48 h. Detection of incorporated BrdU was carried out following the instructions of the ELISA BrdU kit.
Data are average±SD for n=3 independent experiments with triplicates for each condition using a standard BrdU assay (Roche).

[2] = test system: CD40L-induced AID activation in human B cells; assay: Inhibition of CD40L-induced human B-cell function (AID activation, Ds-Red reporter, flow cytometry); type: cell-based; conditions: for IC50: Homo sapiens, B-cell; for inhibition of CD40L-induced human B-cell function, AID activation (in words): human B cells, flow cytometry
Description: Activities in blocking CD40L-induced effects were assessed in a human B cell functional assay that quantitates B-cell function by measuring AID activation via a downstream fluorescent marker using flow cytometry. Activation-induced cytidine deaminase (AID) is necessary for both class switch recombination (CSR) and somatic hypermutation (SHM) of Ig genes, which are important for the generation of high-affinity antibodies and robust humoral immune response (see Frasca et al., Methods Mol Biol 1343:107-114 (2015)). AID is encoded by the aicda gene that is exclusively expressed in B cells and is necessary for opening the DNA molecule in the switch (S) regions in order to allow CSR. […] To further validate the activity of the present compounds, an aicda-lentiviral construct containing the promoter and enhancer region of aicda fused to the reporter Ds-Red was generated and used to transfect human B cells isolated from healthy donors. In these cells, regulation of AID expression through CD40-CD40L signaling following incubation at different conditions were evaluated by Ds-Red level assessed via flow cytometry.
B cells were isolated using anti-CD19 Microbeads (Miltenyi Biotech) from PBMC collected from healthy donors, and they were purified using magnetic columns. These B cells were than transfected with an aicda-DsRed vector using a lentiviral protocol, 1.25×10^5 cells/mL of transfected B cells were stimulated with IL-4 at 0.2 μg/mL and CD40 ligand at 0.2 μg/mL in IMDM media with 10% FBS. In addition, various concentrations of candidate compounds diluted in the same media were added along with the described condition above. Also, 1 μg/ml of CpG was used as positive control for activation. After culture for 2 days at 37° C. and 5% CO2, B cells were collected, and AID activation level as represented by the level of Ds-Red expression was assessed by flow cytometry using BD LSRFortessa cell analyzer.
These are important results as they were obtained in freshly isolated human B cells, a model particularly relevant for autoimmune diseases, and they assess effects on function not just proliferation or viability.

[3] = test system: Balb/c skin grafts in C57BL/6 mice; assay: Skin allograft survival model; type: in vivo, mouse; conditions: CTLA4-Ig plus 21045 30 mg/kg daily s.c. in 20% HPβCD
Description: Full-thickness ear skins from donor mice (Balb/c, Jackson Laboratory; Bar Harbor, Me.) were transplanted onto the dorsal thorax of recipient mice (C57BL/6, Jackson Laboratory) by placing them on ˜1 cm diameter graft beds and securing with bandages.

[4] = 48 h, read-out: IC50, inhibition of CD40L-induced AID activation

Compound	inhibition of CD40L-induced human CD19+ B-cell proliferation (in words) [1]	IC50 [1] [µM]	IC50 [2, 4] [µM]	IC50 ([2]; read-out: IC50 B Cell) [µM]	inhibition of CD40L-induced human B-cell function, AID activation (in words) [2]	mean survival time (MST) of skin grafts [3] [days]
O=C(Nc1ccc(-c2ccc(C(=O)Nc3ccc(C(=O)O)c4ccccc34)cc2)cc1)c1ccc([N+](=O)[O-])cc1 [Compound 25441]	concentration-dependent inhibition	~20	15.9	15.9	concentration-dependent inhibition	
O=C(Nc1ccc(-c2ccc(C(=O)Nc3cccc4cccc(S(=O)(=O)O)c34)cc2)cc1)c1ccc([N+](=O)[O-])cc1 [Compound 21041, 8-[(4′-[4-nitrobenzamido]biphenyl-4-yl-carbonyl)amino]naphthalene-1-sulfonic acid]	concentration-dependent inhibition		13.2	13.2	concentration-dependent inhibition	
COC(=O)c1ccc(C(=O)Nc2ccc(-c3ccc(C(=O)Nc4cccc5cccc(S(=O)(=O)O)c45)cc3)cc2)cc1 [Compound 21045]	concentration-dependent inhibition	~20	4.5	4.5	concentration-dependent inhibition	15
